The values below come from patent US9497972B2, “Compositions comprising a biological control agent and an insecticide” (priority 2012, dated 2016).

Format in all cases: in vivo
Assay [1] deals with Myzus persicae. As to the kind of experiment: Myzus persicae spray test (MYZUPE), Example A: Chinese cabbage leaf-disks. On the procedure: (§1) For all examples efficiencies of the compositions comprising at least one BCA and at least one specific insecticide has been determined by the “Colby-formula”: The expected efficacy of a given combination of two compounds is calculated as follows (see Colby, S. R., “Calculating Synergistic and antagonistic Responses of Herbicide Combinations”, Weeds 15, pp. 20-22, 1967):
(§2) If • X is the efficacy expressed in % mortality of the untreated control for test compound A at a concentration of m ppm respectively m g/ha, • Y is the efficacy expressed in % mortality of the untreated control for test compound B at a concentration of n ppm respectively n g/ha, • E is the efficacy expressed in % mortality of the untreated control using the mixture of A and B at m and n ppm respectively m and n g/ha, then is E=X+Y−(X×Y/100)
(§3) If the observed insecticidal efficacy of the combination is higher than the one calculated as “E”, then the combination of the two compounds is more than additive, i.e., there is a synergistic effect.
Myzus persicae—Spray Test (MYZUPE)
(§4) To produce a suitable preparation of active compound, 1 part by weight of active compound is mixed with the stated amount of solvent and emulsifier, and the concentrate is diluted with emulsifier-containing water to the desired concentration. To produce a suitable preparation of a spore suspension the spores are diluted with emulsifier-containing water to the desired concentration.
Chinese cabbage (Brassica pekinensis) leaf-disks infected with all instars of the green peach aphid (Myzus persicae), are sprayed with a preparation of the active ingredient of the desired concentration.
After the specified period of time, mortality in % is determined. 100% means all aphids have been killed; 0% means none of the aphids have been killed. The mortality values determined thus are recalculated using the Colby-formula (see above).

Assay [2] concerns Phaedon cochleariae. As to the kind of experiment: Phaedon cochleariae spray test, Example C: Chinese cabbage leaf-disks. On the procedure: as §1, §2, §3
Phaedon cochleariae—Spray Test
as §4
Chinese cabbage (Brassica pekinensis) leaf-disks are sprayed with a preparation of the active ingredient of the desired concentration. Once dry, the leaf disks are infested with mustard beetle larvae (Phaedon cochleariae).
After the specified period of time, mortality in % is determined. 100% means all beetle larvae have been killed and 0% means none of the beetle larvae have been killed. The mortality values determined thus are recalculated using the Colby-formula (see above).

In assay [3] the test system is Myzus persicae. As to the kind of experiment: Myzus persicae spray test, Example E: cabbage leaves (Brassica oleracea). The following applies: 1 ppm. On the procedure:
as §1, §2, §3
Myzus persicae—Spray Test […]
(§5) After the specified period of time, mortality in % is determined. […] The mortality values determined thus are recalculated using the Colby-formula (see above).

In assay [4] the test system is Spodoptera frugiperda. As to the kind of experiment: Spodoptera frugiperda spray test, Example D: maize leaf sections. The method, then: as §1, §2, §3
Spodoptera frugiperda—Spray Test
To produce a suitable preparation of the active compound, 1 part by weight of active compound is mixed with the stated amount of solvent and emulsifier, and the concentrate is diluted with emulsifier-containing water to the desired concentration. To produce a suitable preparation of a spore suspension the spores are diluted with emulsifier-containing water to the desired concentration.
Maize (Zea mais) leaf sections are sprayed with a preparation of the active ingredient of the desired concentration. Once dry, the leaf sections are infested with fall armyworm larvae (Spodoptera frugiperda).
After the specified period of time, mortality in % is determined. 100% means all caterpillars have been killed and 0% means none of the caterpillars have been killed. The mortality values determined thus are recalculated using the Colby-formula (see above).

Assay [5] has as its system Tetranychus urticae. As to the kind of experiment: Tetranychus urticae spray test, OP-resistant, Example B: French beans. The method, then:
as §1, §2, §3
Tetranychus urticae—Spray Test, OP-Resistant […]
as §5

Turning to `CN/C(=N\[N+](=O)[O-])NCc1cnc(Cl)s1` [Clothianidin (I142), Clothianidin], the “Efficacy in % after 1^d” value in assay [1] (0.8 g/ha) was found to be 70%. The “Efficacy in % after 6^d” value in assay [1] (4 g/ha) stood at 70%. Also, the “Efficacy in % after 2^d” value in assay [2] (20 g ai/ha) is recorded as 0%.
`O=[N+]([O-])NC1=NCCN1Cc1ccc(Cl)nc1` [Imidacloprid (I144), Imidacloprid]: the “Efficacy in % after 6^d” value in assay [1] (0.032 g/ha) worked out at 0%. The “Efficacy in % after 1^d” value stood at 0% in assay [1] (0.16 g/ha) and 70% in assay [1] (0.4 g/ha).
`CC(c1ccc(C(F)(F)F)nc1)S(C)(=O)=NC#N` (centres unmarked) [Sulfoxaflor (I149), Sulfoxaflor]: the “Efficacy in % after 6^d” value in assay [1] (0.08 g/ha) and in assay [1] (0.4 g/ha) was 70% in each case.
Consider `N#C/N=C1\SCCN1Cc1ccc(Cl)nc1` [Thiacloprid (I146), Thiacloprid], for which the “Efficacy in % after 6^d” value in assay [1] (0.16 g/ha) is given as 0%; in assay [1] (0.8 g/ha) it was 70%. In addition, in assay [3], the “Efficacy in % after 1^d” value stood at 35%.
For `CN1COCN(Cc2cnc(Cl)s2)/C1=N\[N+](=O)[O-]` [Thiamethoxam (I147), Thiamethoxam], in assay [1] (0.16 g/ha), the “Efficacy in % after 6^d” value is recorded as 0%. The “Efficacy in % after 1^d” value in assay [1] (0.4 g/ha) and in assay [1] (2 g/ha) was 0% in each case.
Regarding Spinetoram [Spinetoram (I150)], the “Efficacy in % after 6^d” value in assay [2] (0.16 g ai/ha) is reported as 0%; in assay [2] (0.8 g ai/ha), 33%. Further, the “Efficacy in % after 2^d” value in assay [4] (0.16 g ai/ha) is listed as 67%.
Spinosad [Spinosad (I151)]: the “Efficacy in % after 6^d” value in assay [5] (4 g ai/ha), in assay [1] (20 g/ha), in assay [2] (4 g ai/ha) and in assay [4] (0.16 g ai/ha) was 0% each time. The “Efficacy in % after 2^d” value in assay [5] (20 g ai/ha) is recorded as 50%; in assay [4] (0.8 g ai/ha), 0%.
